Laboratory results from publication PMC6348381, “Discovery of an MLLT1/3 YEATS Domain Chemical Probe” (Angewandte Chemie (International Ed. in English), 2018).

What was measured:
48 bromodomains = test: Thermal shift assay, bromodomain panel; format: binding, human; details: 50 μM compound concentrations
Experimental: II.VII Thermal Shift Assay[6]
Thermal melting experiments were carried out using an Mx3005p Real Time PCR machine (Stratagene). Proteins were buffered in 10 mM HEPES pH 7.5, 500 mM NaCl and assayed in a 96-well plate at a final concentration of 2 μM in 20 μL volume. Compounds were added at a final concentration of 50 μM. SYPRO Orange (Molecular Probes) was added as a fluorescence probe at a dilution of 1:1000. Excitation and emission filters for the SYPRO-Orange dye were set to 465 nm and 590 nm, respectively. The temperature was raised with a step of 3 °C per minute from 25 °C to 96 °C and fluorescence readings were taken at each interval. The unfolding curves were fitted using the Boltzmann equation to determine the middle point of the transition.

[1] = Metabolic stability in primary human hepatocytes; format: in vitro ADME
Experimental: page 98: II.IX in vitro Metabolism Studies Metabolic stability studies were carried out exposing nominated compounds to samples of primary human hepatocytes . Compounds were analysed by LC -MS for loss of parent compound at 0, 10, 30, 60 and 120-minute time points and analysis of metabolites formed . […] 1000000 500000 0 0 min 10 min 30 min 60 min 120 min Supplementary Figure 8.

MV4;11 AML cells = test: qPCR gene expression in MV4;11 cells; format: cell-based, human; details: 1 μM, 72 h
Experimental: II.XII Analysis of gene expression by quantitative polymerase chain reaction (qPCR) […]
MV4;11 cells were cultured at 37 °C in a humidified 5% CO2 atmosphere in RPMI medium containing 10% FBS and 1% L-glutamine. Cells were seeded at a density of 2 x 10^6 cells/well in 6 well plates pre-coated in polyhema, to enable suspension culture. Cells were […]
and washing with PBS, RNA was extracted from cells using RNeasy Mini Kit (Qiagen), following the manufacturer’s protocol. Total RNA was quantified by Nanodrop and 500 ng of RNA was converted to cDNA using GoScript Reverse Transcription System (Promega). The final cDNA products were quantified by QPCR using FAM dye-labelled Taqman primers and probe sets (see table below). Data was analysed using the comparative cycle threshold (CT) method where CT values were normalised by subtracting that from an endogenous housekeeping gene (VIC dye-labelled ACTB). The gene expression levels from compound-treated cells are presented as relative to those of DMSO treated control cells. Statistical analyses were carried out using two-way ANOVA (GraphPad Prism 7).
ACTB (Beta Actin) Endogenous Control 4326315E
Supplementary Table 4. Taqman Gene Expression Assays (Life Technologies). Taqman MGB probes have 5’ FAM reporter dye (or VIC) and 3’ non-fluorescent quencher. […]

| SMILES | activity against 48 bromodomains in thermal shift assay (48 bromodomains) | parent remaining after 60 min ([1]; 60 min) [%] | half-life ([1]; human, read-out: metabolic stability t1/2) [min] | gene expression of MYC, MPO, DDN, CTSG, CD86 (qPCR) (MV4;11 AML cells) | CD86 gene expression (qPCR) (MV4;11 AML cells; compared to DMSO) | DDN gene expression (qPCR) (MV4;11 AML cells; compared to DMSO) | MYC gene expression (qPCR) (MV4;11 AML cells; compared to DMSO) |
| --- | --- | --- | --- | --- | --- | --- | --- |
| COC(=O)c1ccc(C(=O)Nc2ccc3[nH]c(CN4CCCCC4)nc3c2)cc1 [Compound 1] | no activity |  |  |  |  |  |  |
| C[C@H]1CCCN1Cc1nc2cc(NC(=O)c3ccc4c(cnn4C)c3)ccc2[nH]1 [Compound 92] |  | 48 | 53 | changed gene expression of 3/5 genes | increase | reduction | reduction |
